Where a name gives a salt, the structure may show the parent alone.
Legend:
rHDAC1 = biological target: T1, rHDAC1 (Homo sapiens, UniProt Q13547); assay: rHDAC1 enzymatic assay (recombinant FLAG-HDAC1); format: biochemical; conditions: FLAG-HDAC1 from HEK293; 6 μM Ac-NH-GGK(Ac)-AMC, 3 h at 30° C.; read-out: rHDAC1 [pIC50] (converted)
T1 construct: FLAG; made in house
Text: (§1) Human HDAC1 and HDAC6 fused with the FLAG epitope are stably expressed in HEK293 cells while human HDAC3 and HDAC8 fused with the FLAG epitope are overexpressed in baculo-virus infected insect (Sf21) cells. To ensure stability of FLAG-HDAC3 the SMRT protein is co-expressed in the corresponding insect cells. […] FLAG-HDAC3 and FLAG-HDAC8 are also purified by M2-agarose affinity chromatography after mass cultivation of the insect cells and cell lysis.
(§2) The HDAC enzyme activity assay is done as described by Wegener et al. (Chem. & Biol. 10, 61-68, 2003). Briefly 40 μl of a 1:100 dilution (=0.4 μl) nuclear HeLa extract (mixture of class I and II HDACs), 29 μl enzyme buffer (15 mM Tris HCl pH 8.1, 0.25 mM EDTA, 250 mM NaCl, 10% v:v glycerol) and 1 μl test compound are added to a well of a 96 well microtiter plate and reaction started by addition of 3 μl substrate (Ac-NH-GGK(Ac)-AMC; final concentration 25 μM and final volume […]). […] After incubation at room temperature for further 40 min, fluorescence is measured using a Wallac Victor 1420 multilabel counter (Ex 355 nm, Em 460 nm) for quantification of AMC (7-amino-4-methylcoumarin) generated by trypsine cleavage of the deacetylated peptide. […] The corresponding pIC50 values of the compounds for HDAC inhibitory activity are determined from the concentration-effect curves by means of non-linear regression (Graphpad Prism software).
(§3) The HDAC1, HDAC3 and HDAC6 enzymatic assays are done with slight modifications with recombinant FLAG-HDAC1 and FLAG-HDAC6 proteins isolated from HEK293 cell lysates or recombinant FLAG-HDAC3 isolated from insect cells, respectively. The HDAC8 enzymatic assay using recombinant FLAG-HDAC8 isolated from insect cells is done with a different substrate. About 4.5 ng/well FLAG-HDAC1 and 3.1 ng/well FLAG-HDAC6 (dependent on batches and specific activity) are incubated with 6 μM or 10 μM Ac-NH-GGK(Ac)-AMC substrate, respectively, for 3 h at 30° C. About 1.7 ng/well FLAG-HDAC3 is incubated with 6 μM Ac-NH-GGK(Ac)-AMC substrate for 2 h at 30° C., while approximately 130 ng/well FLAG-HDAC8 is incubated with 50 μM Ac-RHK(Ac)K(Ac)-AMC substrate for 3 h at 30° C. Termination of the reaction and all further steps are done as described for HeLa cell nuclear extracts as a source for HDAC enzymatic activity. The corresponding pIC50 values of the compounds for HDAC1, HDAC3, HDAC6 and HDAC8 inhibitory activity are determined from the concentration-effect curves by means of non-linear regression.

rHDAC3 = biological target: T2, rHDAC3 (Homo sapiens, UniProt O15379); assay: rHDAC3 enzymatic assay (recombinant FLAG-HDAC3); format: biochemical; conditions: FLAG-HDAC3 from insect cells; 6 μM Ac-NH-GGK(Ac)-AMC, 2 h at 30° C.; read-out: rHDAC3 [pIC50] (converted)
T2 construct: FLAG; made in house; host or cells: baculovirus-infected Sf21 insect cells
T2 sequence (O15379 whole entry): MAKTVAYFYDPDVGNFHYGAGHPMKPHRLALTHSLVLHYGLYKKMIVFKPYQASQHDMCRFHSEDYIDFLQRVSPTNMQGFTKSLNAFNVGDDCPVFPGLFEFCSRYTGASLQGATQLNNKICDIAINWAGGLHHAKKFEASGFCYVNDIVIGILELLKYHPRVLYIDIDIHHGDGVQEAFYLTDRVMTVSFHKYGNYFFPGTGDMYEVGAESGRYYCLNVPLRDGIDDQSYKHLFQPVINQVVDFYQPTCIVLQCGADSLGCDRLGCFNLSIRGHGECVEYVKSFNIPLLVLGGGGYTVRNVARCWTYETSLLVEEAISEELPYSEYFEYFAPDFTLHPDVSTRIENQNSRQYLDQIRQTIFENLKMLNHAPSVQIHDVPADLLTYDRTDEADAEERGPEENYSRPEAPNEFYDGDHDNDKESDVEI
T2 sequence (Q9Y618 whole entry partner): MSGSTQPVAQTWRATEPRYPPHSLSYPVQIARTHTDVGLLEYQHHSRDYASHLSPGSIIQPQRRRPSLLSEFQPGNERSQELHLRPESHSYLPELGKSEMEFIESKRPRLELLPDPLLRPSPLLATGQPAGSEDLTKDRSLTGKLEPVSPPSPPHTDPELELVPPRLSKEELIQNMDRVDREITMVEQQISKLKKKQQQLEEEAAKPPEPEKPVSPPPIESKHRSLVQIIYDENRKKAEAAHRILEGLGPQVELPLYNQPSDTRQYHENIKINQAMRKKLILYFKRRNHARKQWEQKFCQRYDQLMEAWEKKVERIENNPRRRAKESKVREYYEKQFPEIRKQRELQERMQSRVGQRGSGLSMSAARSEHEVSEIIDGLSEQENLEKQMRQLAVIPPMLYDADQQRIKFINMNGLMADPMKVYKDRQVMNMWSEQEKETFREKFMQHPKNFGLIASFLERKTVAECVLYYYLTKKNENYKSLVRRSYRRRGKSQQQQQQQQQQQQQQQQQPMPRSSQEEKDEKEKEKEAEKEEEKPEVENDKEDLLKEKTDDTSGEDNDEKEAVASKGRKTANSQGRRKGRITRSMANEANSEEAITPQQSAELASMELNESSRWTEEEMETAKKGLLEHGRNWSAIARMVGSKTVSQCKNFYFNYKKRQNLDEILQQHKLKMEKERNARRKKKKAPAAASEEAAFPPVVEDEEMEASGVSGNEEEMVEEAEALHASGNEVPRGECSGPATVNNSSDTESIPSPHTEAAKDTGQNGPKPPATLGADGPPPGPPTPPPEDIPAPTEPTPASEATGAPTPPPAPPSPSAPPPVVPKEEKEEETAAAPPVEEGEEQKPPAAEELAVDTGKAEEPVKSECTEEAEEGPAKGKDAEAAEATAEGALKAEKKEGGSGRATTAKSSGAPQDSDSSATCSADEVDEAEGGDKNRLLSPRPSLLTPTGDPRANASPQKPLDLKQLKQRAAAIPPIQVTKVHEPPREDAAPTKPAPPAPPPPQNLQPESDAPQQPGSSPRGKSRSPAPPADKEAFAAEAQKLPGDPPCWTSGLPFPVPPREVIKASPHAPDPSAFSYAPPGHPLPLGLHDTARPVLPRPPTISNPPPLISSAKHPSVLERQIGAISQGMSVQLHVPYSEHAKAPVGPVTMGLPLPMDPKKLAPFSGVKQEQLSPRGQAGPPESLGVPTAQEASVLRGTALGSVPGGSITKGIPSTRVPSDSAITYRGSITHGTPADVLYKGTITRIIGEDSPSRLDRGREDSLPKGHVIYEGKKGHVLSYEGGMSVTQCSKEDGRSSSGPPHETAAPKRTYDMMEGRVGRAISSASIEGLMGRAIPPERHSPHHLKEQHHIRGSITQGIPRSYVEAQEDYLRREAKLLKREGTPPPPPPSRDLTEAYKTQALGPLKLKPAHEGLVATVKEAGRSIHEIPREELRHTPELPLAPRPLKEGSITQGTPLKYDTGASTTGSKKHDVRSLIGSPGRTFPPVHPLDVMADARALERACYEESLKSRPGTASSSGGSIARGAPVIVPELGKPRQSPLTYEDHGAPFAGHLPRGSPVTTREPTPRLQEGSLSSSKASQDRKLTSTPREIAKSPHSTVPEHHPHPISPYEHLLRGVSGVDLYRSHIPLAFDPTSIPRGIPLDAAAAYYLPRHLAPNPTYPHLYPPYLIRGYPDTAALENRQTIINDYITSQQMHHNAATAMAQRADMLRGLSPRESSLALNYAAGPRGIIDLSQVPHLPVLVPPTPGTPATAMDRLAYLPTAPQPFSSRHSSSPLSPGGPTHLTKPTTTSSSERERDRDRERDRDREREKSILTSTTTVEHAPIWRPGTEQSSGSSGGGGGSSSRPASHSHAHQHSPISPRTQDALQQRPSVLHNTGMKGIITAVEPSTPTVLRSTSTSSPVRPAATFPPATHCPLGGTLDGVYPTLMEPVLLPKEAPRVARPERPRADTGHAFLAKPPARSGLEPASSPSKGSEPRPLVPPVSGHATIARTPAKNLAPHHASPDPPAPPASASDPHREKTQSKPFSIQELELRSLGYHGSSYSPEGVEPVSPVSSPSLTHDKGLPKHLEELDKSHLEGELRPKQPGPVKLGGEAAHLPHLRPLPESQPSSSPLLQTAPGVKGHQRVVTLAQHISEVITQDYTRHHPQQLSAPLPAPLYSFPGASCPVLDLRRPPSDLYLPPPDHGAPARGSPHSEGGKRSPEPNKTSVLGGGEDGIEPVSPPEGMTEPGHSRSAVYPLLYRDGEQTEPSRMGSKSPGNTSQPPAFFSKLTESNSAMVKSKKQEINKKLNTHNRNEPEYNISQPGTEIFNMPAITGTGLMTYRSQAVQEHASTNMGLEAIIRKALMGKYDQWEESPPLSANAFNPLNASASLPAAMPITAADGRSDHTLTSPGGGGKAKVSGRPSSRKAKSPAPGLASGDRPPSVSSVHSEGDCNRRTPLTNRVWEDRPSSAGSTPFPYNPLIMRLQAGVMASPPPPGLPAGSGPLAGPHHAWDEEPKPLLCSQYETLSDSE
Text: as §1, §2, §3

rHDAC8 = biological target: T3, rHDAC8 (Homo sapiens, UniProt Q9BY41); assay: rHDAC8 enzymatic assay (recombinant FLAG-HDAC8); format: biochemical; conditions: FLAG-HDAC8 from insect cells; 50 μM Ac-RHK(Ac)K(Ac)-AMC, 3 h at 30° C.; read-out: rHDAC8 [pIC50] (converted)
T3 construct: FLAG; made in house; host or cells: baculovirus-infected Sf21 insect cells
T3 sequence (Q9BY41 1-377): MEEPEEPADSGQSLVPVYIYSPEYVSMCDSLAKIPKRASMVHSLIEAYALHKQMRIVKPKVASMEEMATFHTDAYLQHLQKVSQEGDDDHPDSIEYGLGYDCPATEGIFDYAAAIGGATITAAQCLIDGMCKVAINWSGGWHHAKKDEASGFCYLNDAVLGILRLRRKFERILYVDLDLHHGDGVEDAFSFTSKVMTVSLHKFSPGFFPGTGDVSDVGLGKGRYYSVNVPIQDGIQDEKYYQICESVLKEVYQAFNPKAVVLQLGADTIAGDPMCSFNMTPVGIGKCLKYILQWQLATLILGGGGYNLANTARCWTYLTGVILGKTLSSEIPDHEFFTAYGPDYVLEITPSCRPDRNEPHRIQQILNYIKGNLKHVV
Text: as §1, §2, §3

[1] = Cellular cytotoxicity assay (Alamar Blue/Resazurin), A549; format: cell-based; conditions: human, A549 cells; A549, 72 hours incubation, Resazurin; read-out: A549 Cytotoxicity [pIC50] (converted)
Procedure: (§4) The anti-proliferative activity of the compounds as described herein, is evaluated with various solid and hematological cancer cell lines using the Alamar Blue (Resazurin) cell viability assay (O'Brien et al, Eur J Biochem 267, 5421-5426, 2000). Resazurin is reduced to the fluorescent resorufin by cellular dehydrogenase activity, correlating with viable, proliferating cells. Test compounds are dissolved as 20 mM solutions in dimethylsulfoxide (DMSO) and subsequently diluted in semi-logarithmic steps. The cancer cell lines are seeded into 96 well flat bottom plates at respective cell densities in a volume of 200 μl per well to allow continuous proliferation during the experiment. 24 hours after seeding 1 μl each of the compound dilutions is added into each well of the 96 well plate. Wells containing untreated control cells are filled with 200 μl DMEM medium containing 0.5% v:v DMSO. The cells are then incubated with the substances for 72 hours at 37° C. in a humidified atmosphere containing 5% carbon dioxide. To determine the viability of the cells, 20 μl of a Resazurin solution (Sigma; 90 mg/l) are added. After 4 hours incubation at 37° C. the fluorescence is measured at an extinction of 544 nm and an emission of 590 nm. For the calculation of the cell viability the emission value from untreated cells is set as 100% viability and the emission rates of treated cells are set in relation to the values of untreated cells. Viabilities are expressed as % values. The corresponding pIC50 values of the compounds for cytotoxic activity are determined from the concentration-effect curves by means of non-linear regression.

[2] = Cellular cytotoxicity assay (Alamar Blue/Resazurin), HeLa; format: cell-based; conditions: human, HeLa cells, 72 hours incubation, Resazurin, read-out: HeLa Cytotoxicity [pIC50] (converted)
Procedure: as §4

T1 sequence (Q13547 whole entry): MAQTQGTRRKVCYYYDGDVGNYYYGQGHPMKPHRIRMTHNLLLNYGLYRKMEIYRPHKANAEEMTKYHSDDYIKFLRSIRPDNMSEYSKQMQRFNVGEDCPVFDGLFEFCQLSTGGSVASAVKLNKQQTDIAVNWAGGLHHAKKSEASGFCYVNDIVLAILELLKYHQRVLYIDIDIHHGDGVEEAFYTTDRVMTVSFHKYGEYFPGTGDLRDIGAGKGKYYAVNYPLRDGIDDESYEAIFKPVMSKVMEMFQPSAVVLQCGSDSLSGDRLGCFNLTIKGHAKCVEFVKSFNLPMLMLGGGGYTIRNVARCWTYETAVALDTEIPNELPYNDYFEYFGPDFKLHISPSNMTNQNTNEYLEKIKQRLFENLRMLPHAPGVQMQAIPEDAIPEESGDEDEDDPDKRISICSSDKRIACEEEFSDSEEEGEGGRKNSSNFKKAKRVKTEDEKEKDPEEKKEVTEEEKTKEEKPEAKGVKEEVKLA

Row | Compound | IC50 (rHDAC1) [µM] | IC50 (rHDAC3) [µM] | IC50 (rHDAC8) [µM] | IC50 at 72 h [1] [µM] | IC50 at 72 h [2] [µM]
1 | CN(C)CCCC(=O)N1CCc2cc(C(=O)NO)ccc2C1 [Example 9, 2-[4-(Dimethylamino)butanoyl]-N-hydroxy-1,2,3,4-tetrahydroisoquinoline-6-carboxamide hydrochloride] | 0.1 to 10 | 10 to 100 | 1 to 10 | 1 to 100 | 1 to 100
2 | O=C(NO)c1ccc2c(c1)CCN(C(=O)C1CCOC1)C2 (stereo not shown) [Example 13, N-Hydroxy-2-(tetrahydrofuran-3-ylcarbonyl)-1,2,3,4-tetrahydroisoquinoline-6-carboxamide] | 10 to 100 | 10 to 100 | 1 to 10 | > 100 | > 100
3 | O=C(NO)c1ccc2c(c1)CCN(C(=O)C1CCC1)C2 [Example 3, 2-(Cyclobutylcarbonyl)-N-hydroxy-1,2,3,4-tetrahydroisoquinoline-6-carboxamide] | 0.1 to 10 | 10 to 100 | 1 to 10 | > 100 | 1 to 100
4 | CC#CC(=O)N1CCc2ccc(C(=O)NO)cc2C1 [Example 17, 2-But-2-ynoyl-N-hydroxy-1,2,3,4-tetrahydroisoquinoline-7-carboxamide] | 0.1 to 10 | 10 to 100 | 0.01 to 1 | > 100 | 1 to 100
5 | Cc1ccc(C(=O)N2CCc3ccc(C(=O)NO)cc3C2)cc1 [Example 23, N-Hydroxy-2-(4-methylbenzoyl)-1,2,3,4-tetrahydroisoquinoline-7-carboxamide] | 0.1 to 10 | 10 to 100 | 0.01 to 1 | 1 to 100 | 1 to 100
6 | O=C(NO)c1ccc2c(c1)CN(C(=O)C1CCOC1)CC2 (stereo not shown) [Example 20, N-Hydroxy-2-(tetrahydrofuran-3-ylcarbonyl)-1,2,3,4-tetrahydroisoquinoline-7-carboxamide] | 0.1 to 10 | 10 to 100 | 0.01 to 1 | > 100 | > 100
7 | O=C(NO)c1ccc2c(c1)CCN(C(=O)C1CC1)C2 [Example 16, N-Hydroxy-2-(cyclopropylcarbonyl)-1,2,3,4-tetrahydroisoquinoline-6-carboxamide] | 0.1 to 10 | 10 to 100 | 1 to 10 | > 100 | > 100
8 | COc1ccc2[nH]c(C(=O)N3CCc4ccc(C(=O)NO)cc4C3)cc2c1 [Example 24, N-Hydroxy-2-[(5-methoxy-1H-indol-2-yl)carbonyl]-1,2,3,4-tetrahydroisoquinoline-7-carboxamide] | 0.1 to 10 | 1 to 10 | 0.01 to 1 | 1 to 100 | 1 to 100

Reference: US8575193B2, “N-substituted tetrahydroisoquinoline/isoindoline hydroxamic acid compounds” (4SC AG, priority 2008, dated 2013)
